Experimental data as given in PubChem BioAssay (NCI).
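Exposure lasted 48 hours, with cells grown in 96-well plates and compounds tested at five concentrations. Abbreviation: GI50, concentration required for 50% inhibition of growth. TGI denotes the concentration required for complete inhibition of growth.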

How the values were obtained:
Assay in all cases: inhibition of tumour cell growth, NCI panel, 48 h
786-0 renal = test system: 786-0 renal
A498 renal = test system: A498 renal
A549 NSCLC = test system: A549 NSCLC
ACHN renal = test system: ACHN renal
BT-549 breast = test system: BT-549 breast
CAKI-1 renal = test system: CAKI-1 renal
CCRF-CEM leukemia = test system: CCRF-CEM leukemia
COLO 205 colon = test system: COLO 205 colon
DU-145 prostate = test system: DU-145 prostate
EKVX NSCLC = test system: EKVX NSCLC
HCC-2998 colon = test system: HCC-2998 colon
HCT-116 colon = test system: HCT-116 colon
HCT-15 colon = test system: HCT-15 colon
HL-60(TB) leukemia = test system: HL-60(TB) leukemia
HOP-62 NSCLC = test system: HOP-62 NSCLC
HOP-92 NSCLC = test system: HOP-92 NSCLC
HS 578T breast = test system: HS 578T breast
HT29 colon = test system: HT29 colon
IGROV1 ovarian = test system: IGROV1 ovarian
K-562 leukemia = test system: K-562 leukemia
KM12 colon = test system: KM12 colon
LOX IMVI melanoma = test system: LOX IMVI melanoma
M14 melanoma = test system: M14 melanoma
MALME-3M melanoma = test system: MALME-3M melanoma
MCF7 breast = test system: MCF7 breast
MDA-MB-231 breast = test system: MDA-MB-231 breast
MDA-MB-435 = test system: MDA-MB-435
MDA-MB-468 breast = test system: MDA-MB-468 breast
MOLT-4 leukemia = test system: MOLT-4 leukemia
NCI-H226 lung = test system: NCI-H226 lung
NCI-H23 lung = test system: NCI-H23 lung
NCI-H460 lung = test system: NCI-H460 lung
NCI-H522 lung = test system: NCI-H522 lung
NCI/ADR-RES ovarian = test system: NCI/ADR-RES ovarian
OVCAR-3 ovarian = test system: OVCAR-3 ovarian
OVCAR-4 ovarian = test system: OVCAR-4 ovarian
OVCAR-5 ovarian = test system: OVCAR-5 ovarian
OVCAR-8 ovarian = test system: OVCAR-8 ovarian
PC-3 prostate = test system: PC-3 prostate
RPMI-8226 leukemia = test system: RPMI-8226 leukemia
RXF 393 renal = test system: RXF 393 renal
SF-268 CNS = test system: SF-268 CNS
SF-295 CNS = test system: SF-295 CNS
SF-539 CNS = test system: SF-539 CNS
SK-MEL-2 melanoma = test system: SK-MEL-2 melanoma
SK-MEL-28 melanoma = test system: SK-MEL-28 melanoma
SK-MEL-5 melanoma = test system: SK-MEL-5 melanoma
SK-OV-3 ovarian = test system: SK-OV-3 ovarian
SN12C renal = test system: SN12C renal
SNB-19 CNS = test system: SNB-19 CNS
SNB-75 CNS = test system: SNB-75 CNS
SR leukemia = test system: SR leukemia
SW-620 colon = test system: SW-620 colon
T-47D breast = test system: T-47D breast
TK-10 renal = test system: TK-10 renal
U251 CNS = test system: U251 CNS
UACC-257 melanoma = test system: UACC-257 melanoma
UACC-62 melanoma = test system: UACC-62 melanoma
UO-31 renal = test system: UO-31 renal

## COC(=O)CNC(=O)COc1c(OC)c(OC)cc2oc(-c3cccc(C(=O)Nc4ccc(Cl)cc4)c3)cc(=O)c12
786-0 renal
  GI50: 5.19 µM
  TGI: 17.2 µM
A498 renal
  GI50: 16.3 µM
  TGI: 34.5 µM
A549 NSCLC
  GI50: 7.25 µM
  TGI: 20.6 µM
ACHN renal
  GI50: 5.84 µM
  TGI: 18.7 µM
BT-549 breast
  GI50: 3.05 µM
  TGI: 12.3 µM
CAKI-1 renal
  GI50: 18.9 µM
  TGI: 41.6 µM
CCRF-CEM leukemia
  GI50: > 100 µM
  TGI: > 100 µM
COLO 205 colon
  GI50: 4.19 µM
  TGI: 17.8 µM
DU-145 prostate
  GI50: 10.6 µM
  TGI: 28.3 µM
EKVX NSCLC
  GI50: 12.4 µM
  TGI: 30.1 µM
HCC-2998 colon
  GI50: 15.4 µM
  TGI: 70.8 µM
HCT-116 colon
  GI50: 13.9 µM
  TGI: 48.5 µM
HCT-15 colon
  GI50: 14.8 µM
  TGI: > 100 µM
HL-60(TB) leukemia
  GI50: 13.3 µM
  TGI: > 100 µM
HOP-62 NSCLC
  GI50: 3.56 µM
  TGI: 11.5 µM
HOP-92 NSCLC
  GI50: 4.04 µM
  TGI: 25.9 µM
HS 578T breast
  GI50: 4.28 µM
  TGI: 28.5 µM
HT29 colon
  GI50: 6.79 µM
  TGI: > 100 µM
IGROV1 ovarian
  GI50: 11.4 µM
  TGI: 24.8 µM
K-562 leukemia
  GI50: 25.6 µM
  TGI: > 100 µM
KM12 colon
  GI50: 27.5 µM
  TGI: > 100 µM
LOX IMVI melanoma
  GI50: 5.02 µM
  TGI: 19.5 µM
M14 melanoma
  GI50: 7.98 µM
  TGI: 25 µM
MALME-3M melanoma
  GI50: 4.75 µM
  TGI: 17.7 µM
MCF7 breast
  GI50: 6.05 µM
  TGI: 23.9 µM
MDA-MB-231 breast
  GI50: 3.57 µM
  TGI: 13 µM
MDA-MB-435
  GI50: 6.57 µM
  TGI: 21.9 µM
MDA-MB-468 breast
  GI50: 27.2 µM
  TGI: > 100 µM
MOLT-4 leukemia
  GI50: > 100 µM
  TGI: > 100 µM
NCI-H226 lung
  GI50: 4.01 µM
  TGI: 27.6 µM
NCI-H23 lung
  GI50: 7.19 µM
  TGI: 20 µM
NCI-H460 lung
  GI50: 4.03 µM
  TGI: 15.1 µM
NCI-H522 lung
  GI50: 7.22 µM
  TGI: 20.1 µM
NCI/ADR-RES ovarian
  GI50: 9.62 µM
  TGI: 73.4 µM
OVCAR-3 ovarian
  GI50: 12.4 µM
  TGI: 37.5 µM
OVCAR-4 ovarian
  GI50: 2.95 µM
  TGI: 10.8 µM
OVCAR-5 ovarian
  GI50: 7.2 µM
  TGI: 40.1 µM
OVCAR-8 ovarian
  GI50: 3.64 µM
  TGI: 11.8 µM
PC-3 prostate
  GI50: 10.3 µM
  TGI: 33.7 µM
RPMI-8226 leukemia
  GI50: 6.51 µM
  TGI: > 100 µM
RXF 393 renal
  GI50: 3.54 µM
  TGI: 14.9 µM
SF-268 CNS
  GI50: 15.1 µM
  TGI: 42.9 µM
SF-295 CNS
  GI50: 13.9 µM
  TGI: 26.9 µM
SF-539 CNS
  GI50: 8.6 µM
  TGI: 20.9 µM
SK-MEL-2 melanoma
  GI50: 10.1 µM
  TGI: 25 µM
SK-MEL-28 melanoma
  GI50: 5.9 µM
  TGI: 18.9 µM
SK-MEL-5 melanoma
  GI50: 3.75 µM
  TGI: 14.7 µM
SK-OV-3 ovarian
  GI50: 11.1 µM
  TGI: 23.6 µM
SN12C renal
  GI50: 4.28 µM
  TGI: 17 µM
SNB-19 CNS
  GI50: 10.6 µM
  TGI: 22.4 µM
SNB-75 CNS
  GI50: 11.9 µM
  TGI: 37.4 µM
SR leukemia
  GI50: 9.98 µM
  TGI: > 100 µM
SW-620 colon
  GI50: 14 µM
  TGI: 69.7 µM
T-47D breast
  GI50: 8.16 µM
  TGI: 31.1 µM
TK-10 renal
  GI50: 16.1 µM
  TGI: 34.6 µM
U251 CNS
  GI50: 4.82 µM
  TGI: 16.5 µM
UACC-257 melanoma
  GI50: 7.35 µM
  TGI: 24.9 µM
UACC-62 melanoma
  GI50: 6.1 µM
  TGI: 19.4 µM
UO-31 renal
  GI50: 13.8 µM
  TGI: 26.7 µM
